From paper PMC7337064, “Parsing the functional specificity of Siderocalin/Lipocalin 2/NGAL for siderophores and related small-molecule ligands” (Journal of Structural Biology: X, 2019)
“Also recorded” adds a separate entry of the source. Like-named read-outs stand apart in the source and are kept apart here.

How the values were obtained:
Scn(C87S/K125A) [1] = target: T1, Scn(C87S/K125A) (Homo sapiens, UniProt P80188, C107S/K145A); assay: FQ binding assay, Scn(C87S/K125A) mutant
T1 construct: made in house
Excerpt: (§1) Growing somewhat frustrated with our inability to fully ablate ligand binding by even fairly extensive mutation, we focused on alternate mutations involving key Pocket #1: K125A, K134A, and the combination. Both lysine side-chains contribute bracketing Coulombic, cation-π, and hydrophobic interactions to the CAM group in this calyx pocket (Fig. 1A). […] The observed < 40-fold affinity reductions were surprising, given the seemingly crucial interactions contributed by these two side-chains bracketing the key pocket.
(§2) Protein biochemistry and crystallography: Mutations were made as previously described ([Abergel et al., 2008], [Goetz et al., 2002]). All clones were confirmed by DNA sequencing. Scn proteins were expressed and purified as previously described ([Abergel et al., 2008], [Bundgaard et al., 1994], [Goetz et al., 2002]). YfiY was expressed and purified as previously described. All crystals were grown using hanging drop vapor diffusion at room temperature. […] Initial Scn structure phases were calculated from the 1L6M.pdb structure and optimized by rigid-body refinement using REFMAC5 ([Murshudov et al., 1997]), or by molecular replacement using 1L6M.pdb as the search model with PHASER ([McCoy et al., 2007]). […]

Scn(C87S/K134A) [2] = target: T2, Scn(C87S/K134A) (Homo sapiens, UniProt P80188, C107S/K154A); assay: FQ binding assay, Scn(C87S/K134A) mutant
T2 construct: made in house
Excerpt: as §1, §2

Scn(C87S/K125A) [3] = target: T1, Scn(C87S/K125A); assay: qualitative binding by co-crystallization (crystal color), Scn(C87S/K125A); conditions: color of complex crystals
Excerpt: as §1
(§3) Fig. 6 Effects of mutating proximal calyx-lining residues on ligand recognition. (A) Superpositions of the three Fe-ENT complexes in the crystallographic AU of the complex with the Scn(C87S/K125A) mutant are shown in a stereoview, oriented and styled as in Fig. 3C. […] (C) Superpositions of the three Fe-ENT complexes in the crystallographic AU of the complex with the Scn(C87S/K134A) mutant are shown in a stereoview. […]
(§4) Protein biochemistry and crystallography: Mutations were made as previously described ([Abergel et al., 2008], [Goetz et al., 2002]). […] Initial Scn structure phases were calculated from the 1L6M.pdb structure and optimized by rigid-body refinement using REFMAC5 ([Murshudov et al., 1997]), or by molecular replacement using 1L6M.pdb as the search model with PHASER ([McCoy et al., 2007]). […]

Scn(C87S/K134A) [4] = target: T2, Scn(C87S/K134A); assay: qualitative binding by co-crystallization (crystal color), Scn(C87S/K134A); conditions: color of complex crystals
Excerpt: as §1, §3, §4

Scn(C87S/K125A/K134A) = target: T3, Scn(C87S/K125A/K134A) (Homo sapiens, UniProt P80188, C107S/K145A/K154A); assay: crystallographic analysis and qualitative co-crystallization binding trials, Scn(C87S/K125A/K134A); conditions: crystals grown in the presence of Fe-ENT
T3 construct: made in house

Scn [5] = target: T4, Scn (Homo sapiens, UniProt P80188); conditions: ref Abergel et al., 2006a, cited from earlier work
T4 construct: made in house

Scn(C87S/W79A/R81A) = target: Scn(C87S/W79A/R81A); set-up: method as in Abergel et al., 2008; conditions: W79A/R81A mutation; ref Abergel et al., 2008; cited from earlier work
Scn(C87S/Y106F) = target: Scn(C87S/Y106F); set-up: method as in Abergel et al., 2008; conditions: Y106F mutation; ref Abergel et al., 2008; cited from earlier work
Scn [6] = target: Scn; set-up: method as in Li et al., 2015; conditions: ref Li et al., 2015; cited from earlier work
human Scn (C87S) = target: T5, human Scn (C87S) (Homo sapiens, UniProt P80188, C107S); assay: crystallographic test of candidate ligand binding in the Scn calyx
T5 construct: made in house
Excerpt: Pseudomonas aeruginosa is a Gram-negative γ-proteobacterium which can cause acute and chronic infections ranging from septicemia, urinary infections, wound colonization, and chronic lung colonization in cystic fibrosis patients ([Cornelis and Dingemans, 2013]). P. aeruginosa produces two chemically-distinct siderophores, pyoverdine (PVD) and PCH, with relatively high or low affinities for iron, respectively. […] The quite large PVD structure would also not be expected to fit within the Scn calyx, nor would the structure of PCH-chelated iron be expected to fit within the key binding pocket, due to tight steric constraints around the iron center imposed by K125 and K134. A preliminary crystal structure of a Scn/PCH complex (3U03.pdb) was deposited in the Protein Databank (PDB, ([Berman et al., 2000])) by a structural genomics consortium. […] First, using the deposited diffraction data, it was readily apparent that the PCH ligand as modeled sat in negative electron density in difference Fourier syntheses (Fig. 7A). Second, this particular crystal form of Scn usually contains three molecules in the asymmetric unit, though only two had been modeled in the deposited structure. Using the deposited diffraction data, we re-refined the structure (Table 2), successfully placing the third Scn molecule and improving refinement statistics: Rfree/Rwork values decreased from 0.303/0.269 (3U03.pdb) to 0.253/0.235 (Table 2).
Though hexadentate catecholate siderophores have much higher complexation constants, bidentate catecholamine hormones (e.g. norepinephrine, NE) are capable of chelating iron in 3:1 complexes, and can serve to promote bacterial growth, at least in vitro ([O'Donnell et al., 2006]). […] However, no co-crystal structure was or has been subsequently reported, and the observed crystal habit was distinct from the typical tetragonal forms observed for Scn (e.g., Fig. 6B, D, and F). […] In order to resolve this discrepancy, we undertook to directly determine the Fe-NE/Scn co-crystal structure. […]

Scn [7] = target: T4, Scn; conditions: cited from earlier work; for binding to Scn, qualitative binding assays: ref Holmes et al., 2005
P. aeruginosa = test system: P. aeruginosa; set-up: method as in Correnti et al., 2011; conditions: in vitro; ref Correnti et al., 2011; cited from earlier work

T2 sequence (P80188 21-198 C107S/K154A): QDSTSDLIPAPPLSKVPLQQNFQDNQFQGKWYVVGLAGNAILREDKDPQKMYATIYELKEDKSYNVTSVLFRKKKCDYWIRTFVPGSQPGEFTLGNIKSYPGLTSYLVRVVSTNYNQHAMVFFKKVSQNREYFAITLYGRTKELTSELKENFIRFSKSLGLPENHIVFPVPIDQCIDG
T1 sequence (P80188 21-198 C107S/K145A): as the sequence (P80188 21-198 C107S/K154A) above, with K125A, A134K counted along it
T5 sequence (P80188 21-198 C107S): as the sequence (P80188 21-198 C107S/K154A) above, with A134K counted along it
T3 sequence (P80188 21-198 C107S/K145A/K154A): as the sequence (P80188 21-198 C107S/K154A) above, with K125A counted along it

Molecule: O=C(N[C@H]1COC(=O)[C@@H](NC(=O)c2cccc(O)c2O)COC(=O)[C@@H](NC(=O)c2cccc(O)c2O)COC1=O)c1cccc(O)c1O.[Fe] [Fe-ENT]
- Kd (Scn(C87S/K125A) [1]; FQ, huScn (K125A)): 15 ± 3 nM
- affinity reduction versus wild-type Scn (Scn(C87S/K125A) [1]; K125A mutation): < 40 fold
- Kd (Scn(C87S/K134A) [2]; FQ, huScn (K134A)): 10 ± 2 nM
- affinity reduction versus wild-type Scn (Scn(C87S/K134A) [2]; K134A mutation): < 40 fold
- qualitative binding by co-crystallization (Scn(C87S/K125A) [3]): binding qualitatively confirmed
- qualitative binding by co-crystallization (Scn(C87S/K134A) [4]): binding also qualitatively confirmed
- ligand binding (crystal structure and co-crystallization trials) (Scn(C87S/K125A/K134A)): lack of ligand binding; also recorded: fully ablating ligand binding
- Kd (Scn [5]; wild-type Scn, Abergel et al., 2008, Goetz et al., 2002): 0.4 nM
- Kd (Scn(C87S/W79A/R81A)): 71 nM
- Kd (Scn(C87S/Y106F)): 20 nM
- KD by ITC (Scn [6]): micromolar

Molecule: NC[C@H](O)c1ccc(O)c(O)c1 [NE, norepinephrine]
- ligand electron density in difference Fourier syntheses (human Scn (C87S); co-crystallized with 2:1:1 2,3-DHBA:NE:iron complexes): did not show difference features distinct from the previously-determined Scn:2,3-DHBA:iron complex structure
- ligand electron density in difference Fourier syntheses (human Scn (C87S); crystals grown with stoichiometric 3:1 NE:iron mixtures): did not show electron density features assignable to iron or ligand atoms

Molecule: O=C(O)c1ccc(O)c(O)c1 [3,4-DHBA]
- binding to Scn (Scn [7]; ref Correnti et al., 2012): do not bind

Molecule: pyoverdine [PVD]
- binding to Scn, qualitative binding assays (Scn [7]): does not appreciably bind

Molecule: CN1[C@@H]([C@H]2CSC(c3ccccc3O)=N2)SC[C@H]1C(=O)O [PCH, pyochelin]
- ligand binding in calyx (re-refined crystal structure) (human Scn (C87S); re-refinement of 3U03.pdb diffraction data, under these crystallization conditions): does not bind
- binding to Scn, qualitative binding assays (Scn [7]): does not appreciably bind

Molecule: O=C(N[C@H]1COC(=O)[C@@H](NC(=O)c2cccc(O)c2O)COC(=O)[C@@H](NC(=O)c2cccc(O)c2O)COC1=O)c1cccc(O)c1O [apo-ENT, enterobactin/enterochelin]
- Kd (Scn [5]; apo ligand (no iron)): 3.6 nM

B1: Scn: glycoprotein Siderocalin, innate immune system protein with bacteriostatic activity (protein, UniProt P80188 21-198, looked up)
Neutrophil …: QDSTSDLIPAPPLSKVPLQQNFQDNQFQGKWYVVGLAGNAILREDKDPQKMYATIYELKEDKSYNVTSVLFRKKKCDYWIRTFVPGCQPGEFTLGNIKSYPGLTSYLVRVVSTNYNQHAMVFFKKVSQNREYFKITLYGRTKELTSELKENFIRFSKSLGLPENHIVFPVPIDQCIDG
- growth arrest of P. aeruginosa (P. aeruginosa): does not arrest the growth
